Measurements from US20240217966A1, “PHARMACEUTICAL COMPOSITION CONTAINING GLP-1 RECEPTOR AGONIST HAVING FUSED RING” (Shionogi & Co., Ltd., priority 2021, published 2024).

Target: T1, Human GLP-1 receptor (Homo sapiens, UniProt P43220)
T1 construct: expressed in transfected cells
Test: Measurement of GLP-1 receptor agonist activity (cAMP assay)
Format: cell-based
Details: for Emax: CHO-K1, hGLP-1R/CHO-K1 cells, read-out: Emax(%); for EC50: cAMP increase, 37° C. 1 hour
Description: Test Example 1: (Measurement of GLP-1 Receptor Agonist Activity)
Human GLP-1 receptor stably expressing cells (hGLP-1R/CHO-K1 cells) are cultured in an α-MEM medium (Sigma) containing 10% FBS (Hyclone), 2% GlutaMAX (Gibco), 1% G418 (Nacalai Tesque), and 1% Penicillin-Streptomycin Mixed Solution (Sigma) at 37° C. under 5% CO2 conditions, and recovered by treating a 10 fold diluted 5.0 g/l-trypsin/5.3 mmol/l-EDTA solution (Nacalai Tesque) and cryopreserved.
A DMSO solution containing the compound of the present invention or human GLP-1 (7-36) (Phoenix Pharmaceuticals) is dispensed into a 384-well microplate (Greiner) at 62.5 nL/well, and in addition, 400 μM Forskolin (Nacalai Tesque) is dispensed therein at 7.5 nL/well. Subsequently, the frozen GLP-1 R/CHO-K1 cells are thawed in a thermostatic bath at 37° C., suspended in HBSS buffer (GIBCO) containing 0.1% BSA (Sigma), 20 mM HEPES (GIBCO), 0.1 mM IBMX (Sigma), and 0.2 mM RO20-1724 (Calbiochem) at 2×10^4 cells/mL, and the cell suspension is added at 6 μL/well. The solution was incubated at 37° C. for 1 hour and intracellular cAMP concentration is measured using cAMP Gs dynamic kit (Cisbio) according to the protocol attached to the product. Specifically, cAMP-d2 and Anti-cAMP-Cryptate are each added in an amount of 3 μL/well, the mixture is incubated at room temperature for 1 hour, and time-resolved fluorescence is measured using PHERAstar (BMG Labtech).
The dilution concentration or the dilution solvent are changed as necessary.
The compounds of the present invention were tested essentially as described above.

[1] = cAMP, 100% = human GLP-1 (7-36) at 2 nM, 0% = DMSO only

T1 sequence (P43220 24-463): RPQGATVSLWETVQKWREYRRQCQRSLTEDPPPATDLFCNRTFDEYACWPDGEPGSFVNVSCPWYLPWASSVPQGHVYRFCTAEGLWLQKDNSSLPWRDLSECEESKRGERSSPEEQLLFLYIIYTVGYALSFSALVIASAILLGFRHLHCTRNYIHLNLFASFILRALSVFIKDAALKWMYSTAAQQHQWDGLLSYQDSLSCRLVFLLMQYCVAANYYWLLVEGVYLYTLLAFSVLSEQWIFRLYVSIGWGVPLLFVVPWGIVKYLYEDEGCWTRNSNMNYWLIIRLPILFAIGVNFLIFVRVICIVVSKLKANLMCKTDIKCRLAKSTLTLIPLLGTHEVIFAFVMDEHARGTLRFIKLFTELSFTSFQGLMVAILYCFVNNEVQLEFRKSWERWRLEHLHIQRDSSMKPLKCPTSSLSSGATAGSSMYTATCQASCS

Row | SMILES | Emax [1] [%] | EC50 (hGLP-1R/CHO-K1 cells) [nM] | Emax(%) (hGLP-1R/CHO-K1 cells, cAMP, 100% = human GLP-1 (7-36) at 2 nM, 0% = DMSO only)
1 | CS(=O)(=O)c1ccc(COc2cc3c(cc2C(F)(F)F)CCN(Cc2nc4ccc(C(=O)O)cc4n2C[C@@H]2CCO2)C3)cc1 [Compound I-086] | 106 | 17.9 | –
2 | O=C(O)c1ccc2nc(CN3CCc4cc(C(F)(F)F)c(OCc5ccccc5-c5ccccc5)cc4C3)n(C[C@@H]3CCO3)c2c1 [Compound I-088] | 147 | 7.81 | –
3 | O=C(O)c1ccc2nc(CN3CCc4cc(C(F)(F)F)c(OCc5ccccc5Cl)cc4C3)n(C[C@@H]3CCO3)c2c1 [Compound I-090] | 106 | 6.6 | –
4 | O=C(O)c1ccc2nc(CN3CCc4cc(C(F)(F)F)c(OCc5ccc(F)c(F)c5)cc4C3)n(C[C@@H]3CCO3)c2c1 [Compound I-093] | 111 | 16.6 | –
5 | O=C(O)c1ccc2nc(CN3CCc4cc(C(F)(F)F)c(OCc5ccc(F)c(F)c5F)cc4C3)n(C[C@@H]3CCO3)c2c1 [Compound I-094] | 102 | 28.5 | –
6 | O=C(O)c1ccc2nc(CN3CCc4cc(C(F)(F)F)c(OCc5cc(F)c(F)cc5F)cc4C3)n(C[C@@H]3CCO3)c2c1 [Compound I-095] | 112 | 10.5 | –
7 | O=C(O)c1ccc2nc(CN3CCc4cc(C(F)(F)F)c(OCc5ccc(Cl)c(F)c5)cc4C3)n(C[C@@H]3CCO3)c2c1 [Compound I-098] | 120 | 10.9 | –
8 | O=C(O)c1ccc2nc(CN3CCc4cc(C(F)(F)F)c(OCc5ccc(Cl)cc5C(F)(F)F)cc4C3)n(C[C@@H]3CCO3)c2c1 [Compound I-100] | 90.7 | 95.2 | –
9 | O=C(O)c1ccc2nc(CN3CCc4cc(C(F)(F)F)c(OCc5c(F)cc(Cl)cc5F)cc4C3)n(C[C@@H]3CCO3)c2c1 [Compound I-101] | 113 | 2.23 | –
10 | O=C(O)c1ccc2nc(CN3CCc4cc(C(F)(F)F)c(OCc5ccc(C6CC6)cc5)cc4C3)n(C[C@@H]3CCO3)c2c1 [Compound I-102] | 106 | 5.09 | –
11 | N#Cc1ccc(COc2cc3c(cc2C(F)(F)F)CCN(Cc2nc4ccc(C(=O)O)cc4n2C[C@@H]2CCO2)C3)cc1 [Compound I-103] | 113 | 5.6 | –
12 | COc1ccc(COc2cc3c(cc2C(F)(F)F)CCN(Cc2nc4ccc(C(=O)O)cc4n2C[C@@H]2CCO2)C3)cc1 [Compound I-104] | 102 | 4.78 | –
13 | O=C(O)c1ccc2nc(CN3CCc4cc(C(F)(F)F)c(OCc5ccc(F)cc5F)cc4C3)n(C[C@@H]3CCO3)c2c1 [Compound I-106] | 101 | 6.88 | –
14 | O=C(O)c1ccc2nc(CN3CCc4cc(C(F)(F)F)c(OCc5c(F)cc(F)cc5F)cc4C3)n(C[C@@H]3CCO3)c2c1 [Compound I-107] | 101 | 3.5 | –
15 | Cc1cc(C(=O)O)cc2c1nc(CN1CCc3cc(C(F)(F)F)c(OCc4ccc(Cl)cc4F)cc3C1)n2C[C@@H]1CCO1 [Compound I-108] | 108 | 8.33 | –
16 | COc1cc(C(=O)O)cc2c1nc(CN1CCc3cc(C(F)(F)F)c(OCc4ccc(Cl)cc4F)cc3C1)n2C[C@@H]1CCO1 [Compound I-119] | 119 | 0.569 | –
17 | O=C(O)c1cc(OC(F)F)c2nc(CN3CCc4cc(C(F)(F)F)c(OCc5ccc(Cl)cc5F)cc4C3)n(C[C@@H]3CCO3)c2c1 [Compound I-120] | 103 | 2.43 | –
18 | O=C(O)c1ccc2nc(Cc3cc(F)c4nc(C(F)(F)F)c(OCc5ccc(Cl)cc5F)nc4c3)n(C[C@@H]3CCO3)c2c1 [Compound I-127] | 111 | 1.15 | –
19 | O=C(O)c1ccc2nc(Cc3cc4nc(OCc5ccc(Cl)cc5F)c(C(F)(F)F)nc4cc3F)n(C[C@@H]3CCO3)c2c1 [Compound I-128] | 81.3 | 40.3 | –
20 | Cc1c(Cc2nc3ccc(C(=O)O)cc3n2C[C@@H]2CCO2)ccc2nc(C(F)(F)F)c(OCc3ccc(Cl)cc3F)nc12 [Compound I-132] | 105 | 0.881 | –
21 | O=C(O)c1cc(F)c2nc(CN3CCc4cc(C(F)(F)F)c(OCc5ccc(Cl)cc5F)cc4C3)n(C[C@@H]3CCO3)c2c1F [Compound I-134] | 119 | 1.18 | –
22 | O=C(O)c1ccc2nc(CN3CCc4cc(C(F)(F)F)c(OCc5ccc(C(F)(F)F)cn5)cc4C3)n(C[C@@H]3CCO3)c2c1 [Compound I-135] | 91 | 27.6 | –
23 | Cc1ccc(COc2cc3c(cc2C(F)(F)F)CCN(Cc2nc4ccc(C(=O)O)cc4n2C[C@@H]2CCO2)C3)nc1 [Compound I-136] | 107 | 5.73 | –
24 | Cc1csc(COc2cc3c(cc2C(F)(F)F)CCN(Cc2nc4ccc(C(=O)O)cc4n2C[C@@H]2CCO2)C3)n1 [Compound I-137] | 114 | 5.56 | –
25 | Cc1nc(COc2cc3c(cc2C(F)(F)F)CCN(Cc2nc4ccc(C(=O)O)cc4n2C[C@@H]2CCO2)C3)cs1 [Compound I-138] | 94.3 | 68.8 | –
26 | O=C(O)c1ccc2nc(CN3CCc4cc(C(F)(F)F)c(OCc5ccc(OC(F)F)c(F)c5)cc4C3)n(C[C@@H]3CCO3)c2c1 [Compound I-143] | 101 | 25.3 | –
27 | O=C(O)c1cc(C(F)F)c2nc(CN3CCc4cc(C(F)(F)F)c(OCc5ccc(Cl)cc5F)cc4C3)n(C[C@@H]3CCO3)c2c1 [Compound I-146] | 102 | 40.3 | –
28 | Cc1cn(C)nc1COc1cc2c(cc1C(F)(F)F)CCN(Cc1nc3ccc(C(=O)O)cc3n1C[C@@H]1CCO1)C2 [Compound I-147] | 88 | 99.3 | –

Next, values leading:

Row | Emax [1] [%] | EC50 (hGLP-1R/CHO-K1 cells) [nM] | Emax(%) (hGLP-1R/CHO-K1 cells, cAMP, 100% = human GLP-1 (7-36) at 2 nM, 0% = DMSO only) | SMILES
29 | 105 | 2.42 | – | O=C(O)c1ccc2nc(CN3CCc4cc(C(F)(F)F)c(OCc5ccc(F)cc5Cl)cc4C3)n(C[C@@H]3CCO3)c2c1 [Compound I-097]
30 | 114 | 1.43 | – | O=C(O)c1ccc2nc(CN3CCc4cc(C(F)(F)F)c(OCc5ccc(Cl)cc5Cl)cc4C3)n(C[C@@H]3CCO3)c2c1 [Compound I-099]
31 | 114 | – | – | O=C(O)c1ccc2nc(CN3CCc4cc(C(F)(F)F)c(OCc5ccc(Cl)cc5F)nc4C3)n(C[C@@H]3CCO3)c2c1 [Compound I-110]
32 | 126 | 2.51 | – | C[C@H]1c2cc(OCc3ccc(C#N)cc3)c(C(F)(F)F)cc2CCN1Cc1nc2ccc(C(=O)O)cc2n1C[C@@H]1CCO1 [Compound I-111]
33 | 114 | 1.1 | – | C[C@H]1c2cc(OCc3ccc(C#N)cc3)c(C(F)(F)F)cc2CCN1Cc1nc2c(F)cc(C(=O)O)cc2n1C[C@@H]1CCO1 [Compound I-112]
34 | 124 | 1.46 | – | C[C@H]1c2cc(OCc3ccc(C#N)cc3)c(C(F)(F)F)cc2CCN1Cc1nc2ccc(C(=O)O)c(F)c2n1C[C@@H]1CCO1 [Compound I-113]
35 | 132 | 0.604 | – | C[C@H]1c2cc(OCc3c(F)cc(Cl)cc3F)c(C(F)(F)F)cc2CCN1Cc1nc2ccc(C(=O)O)cc2n1C[C@@H]1CCO1 [Compound I-114]
36 | 124 | 0.538 | – | C[C@H]1c2cc(OCc3c(F)cc(Cl)cc3F)c(C(F)(F)F)cc2CCN1Cc1nc2ccc(C(=O)O)nc2n1C[C@@H]1CCO1 [Compound I-115]
37 | 113 | 0.658 | – | C[C@H]1c2cc(OCc3ccc(Cl)cc3Cl)c(C(F)(F)F)cc2CCN1Cc1nc2ccc(C(=O)O)nc2n1C[C@@H]1CCO1 [Compound I-118]
38 | 119 | 1.21 | – | C[C@H]1c2cc(OCc3ccc(F)cc3)c(C(F)(F)F)cc2CCN1Cc1nc2c(F)cc(C(=O)O)cc2n1C[C@@H]1CCO1 [Compound I-121]
39 | 97 | 1.22 | – | C[C@H]1c2cc(OCc3ccc(F)cc3)c(C(F)(F)F)cc2CCN1Cc1nc2ccc(C(=O)O)c(F)c2n1C[C@@H]1CCO1 [Compound I-122]
40 | 102 | 1.71 | – | C[C@H]1c2cc(OCc3c(F)cc(F)cc3F)c(C(F)(F)F)cc2CCN1Cc1nc2ccc(C(=O)O)cc2n1C[C@@H]1CCO1 [Compound I-124]
41 | 99.7 | – | 98.7 | C[C@H]1c2cc(OCc3c(F)cc(F)cc3F)c(C(F)(F)F)cc2CCN1Cc1nc2ccc(C(=O)O)c(F)c2n1C[C@@H]1CCO1 [Compound I-126]
42 | 122 | 0.329 | – | C[C@H]1c2cc(OCc3c(F)cc(Cl)cc3F)c(C(F)(F)F)cc2CCN1Cc1nc2c(F)cc(C(=O)O)cc2n1C[C@@H]1CCO1 [Compound I-129]
43 | 139 | 0.307 | – | C[C@H]1c2cc(OCc3c(F)cc(Cl)cc3F)c(C(F)(F)F)cc2CCN1Cc1nc2ccc(C(=O)O)c(F)c2n1C[C@@H]1CCO1 [Compound I-130]
44 | 117 | 1.23 | – | COc1cc(Cl)ccc1COc1cc2c(cc1C(F)(F)F)CCN(Cc1nc3ccc(C(=O)O)cc3n1C[C@@H]1CCO1)C2 [Compound I-139]
45 | 96 | 18 | – | Cc1cc(Cl)ccc1COc1cc2c(cc1C(F)(F)F)CCN(Cc1nc3ccc(C(=O)O)cc3n1C[C@@H]1CCO1)C2 [Compound I-140]
